Data published in patent publication US20230416328A1, “C-Type Natriuretic Peptides and Methods Thereof in Treating Acute Lung Injury” (priority 2020, published 2023).
Numbered stars: 1 amine (or outer) side, 2 acyl side, 3 side chain; on linkers, the order of the positions; unused ones are H or OH. Bridge positions count the residues as written; N and C are the ends. Square brackets hold non-standard residues; d marks the D form. Peptide text beside a SMILES is read from it. * marks the point of attachment. C18 diacid = O=C(O)CCCCCCCCCCCCCCCCC(=O)*; γGlu = O=C(O)[C@H](CCC(=O)[*:2])N[*:1]; Aad = N[C@@H](CCCC(=O)O)C(=O)O; AEEA = NCCOCCOCC(=O)O

What was measured:
LPS-induced sepsis = LPS-induced sepsis lethality in Balb/c mice (survival); format: in vivo; settings: LPS 10 mg/kg i.p., 1.0 mg/kg s.c.
Method: Male Balb/c mice (11 week) were purchased from Kyudo (Saga, Japan) and maintained under a 12-hour light/12-hour dark cycle with free access to water and standard mouse diet (MF diet, Oriental Yeast Co., Ltd. Tokyo, Japan). […] Test articles were administered right after LPS administration. Survival was observed every 2 hours.
Table 1. […] Shown is the % survival by hours. […] Survival was observed every 2 hours (FIGS. 13A and 13B). First mortality observed was in Italicized and bold and the last observation survival % was in bold in the table.

[1] = species not stated; cited from earlier work
[2] = healthy human volunteers, bolus injection; cited from earlier work
[3] = Pharmacokinetic study: plasma CNP (ELISA) after subcutaneous bolus in CD-1 mice
Method: All test articles were formulated or dissolved in 100 mM sorbitol, 100 mM methionine, 20 mM histidine, pH 6.0. […] Blood samples were processed in K2EDTA tubes to obtain plasma. Plasma was analyzed by commercially available CNP ELISA kit from Phoenix Pharmaceuticals (cat #EKE-012-03).

[4] = Pharmacokinetic study of dCNP-s1 and dCNP-s2: plasma CNP (ELISA) in CD-1 mice; format: in vivo; settings: 2.0 mg/Kg s.c. bolus, FIG. 20
Method: For this pharmacokinetic study, all animals (mice) for this study were maintained under a 12-hour light/12-hour dark cycle with free access to water and standard mouse diet (Lab Pico Rodent #5053; Animal Specialties, Woodburn, OR). Male CD-1 mice (6-8 weeks old; Charles River, Hollister, CA) were treated with 2.0 mg/Kg of CNP derivative s1 (dCNP-s1; PharmaIN Corp, Bothell, WA), and CNP derivative s2 (dCNP-s2; PharmaIN Corp, Bothell, WA) via subcutaneous administration between the shoulder blades.

[5] = in vivo; cited from earlier work
[6] = hours '0' [sic] (second to last observation)

Row | Molecule | Percent animal survival at various time after LPS administration (LPS-induced sepsis; hours 1 (last observation)) [%] | Percent animal survival at various time after LPS administration (LPS-induced sepsis; hours 3 [sic]) [%] | Percent animal survival at various time after LPS administration (LPS-induced sepsis; hours 7 [sic]) [%] | Percent animal survival at various time after LPS administration (LPS-induced sepsis; hours 9 [sic]) [%] | Percent animal survival at various time after LPS administration (LPS-induced sepsis; hours '0') [%] | Percent animal survival at various time after LPS administration (LPS-induced sepsis; [6]) [%] | Percent animal survival at various time after LPS administration (LPS-induced sepsis; hours '2') [%] | Percent animal survival at various time after LPS administration (LPS-induced sepsis; hours '8') [%] | also measured
1 | CC[C@H](C)[C@@H]1NC(=O)[C@H](CCCNC(=N)N)NC(=O)[C@H](CC(=O)O)NC(=O)[C@H](CCSC)NC(=O)[C@H](CCCNC(=N)N)NC(=O)CNC(=O)CNC(=O)[C@H](Cc2ccccc2)NC(=O)[C@@H](NC(=O)[C@H](CO)NC(=O)[C@H](CO)NC(=O)[C@H](CCCNC(=N)N)NC(=O)[C@H](CCCNC(=N)N)NC(=O)[C@H](CC(C)C)NC(=O)[C@@H](N)CO)CSSC[C@@H](C(=O)N[C@@H](CC(N)=O)C(=O)N[C@@H](CO)C(=O)N[C@@H](Cc2ccccc2)C(=O)N[C@@H](CCCNC(=N)N)C(=O)N[C@@H](Cc2ccc(O)cc2)C(=O)O)NC(=O)CNC(=O)[C@H](CC(C)C)NC(=O)CNC(=O)[C@H](CO)NC(=O)[C@H](CCC(N)=O)NC(=O)[C@H](C)NC(=O)CNC1=O [ANP, atrial natriuretic peptide] | 10 | 100 | 60 | 30 | 100 | 10 | 100 | 30 | Percent animal survival at various time after LPS administration (LPS-induced sepsis; hours printed '6' (r14)): 60%
2 | CC[C@H](C)[C@@H]1NC(=O)[C@H](CCCNC(=N)N)NC(=O)[C@H](CC(=O)O)NC(=O)[C@H](CC(C)C)NC(=O)[C@H](CCCCN)NC(=O)[C@H](CC(C)C)NC(=O)CNC(=O)[C@H](Cc2ccccc2)NC(=O)[C@@H](NC(=O)CNC(=O)[C@H](CCCCN)NC(=O)[C@H](CO)NC(=O)[C@H](CC(C)C)NC(=O)CN)CSSC[C@@H](C(=O)O)NC(=O)CNC(=O)[C@H](CC(C)C)NC(=O)CNC(=O)[C@H](CO)NC(=O)[C@H](CCSC)NC(=O)[C@H](CO)NC(=O)CNC1=O [CNP] | – | – | – | – | – | – | – | – | half-life [1]: 2 to 13 min; heart rate [2]: significant increase in heart rate; systolic and diastolic blood pressure [2]: transient but significant decrease; plasma CNP ([3]; CD-1 mice, 2.0 mg/Kg s.c. bolus, FIG. 1A): low plasma level of CNP
3 | CCCc1nc(C)c2c(=O)[nH]c(-c3cc(S(=O)(=O)N4CCN(CC)CC4)ccc3OCC)nn12 [VDN, Vardenafil] | 0 | 100 | 60 | 20 | 100 | 0 | 100 | 20 | Percent animal survival at various time after LPS administration (LPS-induced sepsis; hours printed '5' (r13)): 100%
4 | CC[C@H](C)[C@@H]1NC(=O)[C@H](CCCNC(=N)N)NC(=O)[C@H](CC(=O)O)NC(=O)[C@H](CC(C)C)NC(=O)[C@H](CCCCN)NC(=O)[C@H](CC(C)C)NC(=O)CNC(=O)[C@H](Cc2ccccc2)NC(=O)[C@@H](NC(=O)CNC(=O)COCCOCCNC(=O)COCCOCCNC(=O)CCCCCCCCCCCCCCCCC(=O)O)CSSC[C@@H](C(=O)O)NC(=O)CNC(=O)[C@H](CC(C)C)NC(=O)CNC(=O)[C@H](CO)NC(=O)[C@H](CCCC(N)=O)NC(=O)[C@H](CO)NC(=O)CNC1=O [dCNP-s1] ({C18 diacid-AEEA-AEEA}-GCFGLKLDRIGS[Aad](NH2)SGLGC-OH; disulfide 2-18) | – | – | – | – | – | – | – | – | blood level of CNP relative to native CNP at similar weight/Kg dose [4]: 10 fold
5 | CC[C@H](C)[C@@H]1NC(=O)[C@H](CCCNC(=N)N)NC(=O)[C@H](CC(=O)O)NC(=O)[C@H](CC(C)C)NC(=O)[C@H](CCCCN)NC(=O)[C@H](CC(C)C)NC(=O)CNC(=O)[C@H](Cc2ccccc2)NC(=O)[C@@H](NC(=O)CNC(=O)COCCOCCNC(=O)COCCOCCNC(=O)CC[C@H](NC(=O)CCCCCCCCCCCCCCCCC(=O)O)C(=O)O)CSSC[C@@H](C(=O)O)NC(=O)CNC(=O)[C@H](CC(C)C)NC(=O)CNC(=O)[C@H](CO)NC(=O)[C@H](CCCC(N)=O)NC(=O)[C@H](CO)NC(=O)CNC1=O [dCNP-s2] ({C18 diacid-γGlu-AEEA-AEEA}-GCFGLKLDRIGS[Aad](NH2)SGLGC-OH; disulfide 2-18) | – | – | – | – | – | – | – | – | blood level of CNP relative to native CNP at similar weight/Kg dose [4]: 10 fold
6 | CCCCCCCCCCCCCCCCCC(=O)N[C@@H](CCCCN)C(=O)N[C@@H](CCCCN)C(=O)N[C@@H](CCCCN)C(=O)N[C@@H](CCCCN)C(=O)NCC(=O)NCC(=O)NCC(=O)NCC(=O)N[C@@H](CC(C)C)C(=O)N[C@@H](CO)C(=O)N[C@@H](CCCCN)C(=O)NCC(=O)N[C@H]1CSSC[C@@H](C(=O)O)NC(=O)CNC(=O)[C@H](CC(C)C)NC(=O)CNC(=O)[C@H](CO)NC(=O)[C@H](CCSC)NC(=O)[C@H](CO)NC(=O)CNC(=O)[C@H]([C@@H](C)CC)NC(=O)[C@H](CCCNC(=N)N)NC(=O)[C@H](CC(=O)O)NC(=O)[C@H](CC(C)C)NC(=O)[C@H](CCCCN)NC(=O)[C@H](CC(C)C)NC(=O)CNC(=O)[C@H](Cc2ccccc2)NC1=O [dCNP] | – | – | – | – | – | – | – | – | plasma CNP ([3]; mouse, in vivo, sc, 2 mg/kg): sustained plasma presence
7 | B-type natriuretic peptide [BNP] | 10 | 100 | 60 | 20 | 100 | 10 | 100 | 20 | Percent animal survival at various time after LPS administration (LPS-induced sepsis; hours printed '5' (r13)): 100%
8 | PGQEHPNARKYKGANKKGLS KGCFGLKLDR IGSMSGLGC (PGQEHPNARKYKGANKKGLSKGCFGLKLDRIGSMSGLGC) [BMN-111] | – | – | – | – | – | – | – | – | arterial blood pressure (BP) [5]: drops; heart rate (HR) [5]: increases
